From patent EP2727944A1, “Depletion of CCR2-positive monocytes for the treatment of inflammatory conditions in the gastrointestinal system” (Universitätsklinikum Regensburg, priority 2012, dated 2014)

System: CX3CR1/GFP^intLy6C^hi effector monocytes
Assay: IL-6 ELISA of sorted colonic cells cultured with TLR/NOD2 ligands
Type: cell-based, mice
Details: cells sorted at DSS day 7, cultured 16 hr; Pam3CSK4 10 µg/ml, LPS 100 ng/ml
Excerpt: To probe whether the pro-inflammatory signature of the effector monocytes could have been a result of TLR and NOD-2 engagement, the cells were isolated from colitic mice and exposed to the respective ligands.

## Pam3CSK4
  IL-6 secretion: substantial IL-6 secretion
